Assays:
[1] = system: keratinocytes (HaCat line); assay: Proliferation of keratinocytes (HaCat line) in culture medium deficient in growth factors; Cyquant, Nile red and XTT probes; type: cell-based
Description: The keratinocytes (HaCat line) are cultured under two conditions: whole defined culture medium (standard condition) and culture medium deficient in growth factors. This deficient medium gives rise to a controlled delay in cell proliferation. Under these conditions, it is then possible to measure the effects of compounds capable of compensating for the deficiency in growth factors of the culture medium and thus of relaunching the cell multiplication and/or of stimulating cell metabolism.
The keratinocyte proliferation is measured by means of three markers on the same cell population: the level of DNA, which is proportional to the number of cells (Cyquant probe), the level of constituent polar lipids of cell membranes (Nile red probe) and the mitochondrial respiration, which reflects the general cell metabolism (XTT probe).

[2] = system: dermal fibroblasts of the reconstructed skin; assay: Proliferation of dermal fibroblasts in whole reconstructed skin (propidium iodide nuclei count on frozen sections); type: cell-based, human; details: 5 mM, 48 hours of treatment, reconstructed skin versus control skin
From the text: Rhamnose was studied on a model of whole reconstructed skin in order to measure its anti-ageing efficacy on the dermal compartment.
(§1) Briefly, the model of reconstructed skin used is that described by Bell et al. (Bell E. et al., The reconstitution of living skin, J. Invest. Dermatol., 1983, July; 81): it includes a dermal equivalent on which is reconstructed a multistratified epidermis; the dermal equivalent is manufactured from acid-soluble collagen, culture medium containing serum and normal adult human fibroblasts. After 5 days of shrinkage, this equivalent is inoculated with keratinocytes and then cultured for 6 days in immersion and for 7 days in emersion in order to obtain a multistratified and differentiated epidermis having a horny layer.
The reconstructed skin is treated with 5 mM rhamnose for 2 days and 5 days in the culture medium; after the treatment, the reconstructed skins are included in Tissue Tek in order to produce frozen sections 7 μm thick with a cryostat. […] Three frozen sections are prepared at random on each reconstructed skin; on each section, two microscopic fields (25× objective lens) are analysed by fluorescence microscopy and photographed. The dermal fibroblasts are thus counted for each reconstructed skin on six images in total representing the six microscopic fields considered. […]

type I procollagen = assay: Synthesis of procollagen 1 in the dermis of reconstructed skin (indirect immunofluorescence); type: cell-based, human; details: for procollagen 1 synthesis: reconstructed skin
From the text: as §1
Conventional detection via indirect immunofluorescence of type I procollagen in the dermis of the reconstructed skin was also performed on other series of frozen sections (anti-procoll 1 antibody (MAB 1912 Millipore)+FTIC-coupled conjugate (112-095-068 Jackson Immunoresearch)). In order to obtain bearings within the cutaneous architecture during the microscopic examination of the sections, the cell nuclei of the keratinocytes and fibroblasts are localized by staining them with propidium iodide, as described above. Three frozen sections are prepared at random on each reconstructed skin and on each section, and two microscopic fields (25× objective lens) are analysed by fluorescence microscopy and photographed. The levels of fluorescence proportional to the amount of type I procollagen are compared between the control skin and the skin treated with rhamnose.

[3] = 1 mM, medium depleted in growth factors, versus untreated control

C[C@H](O)[C@H](O)[C@@H](O)[C@@H](O)C=O [rhamnose]
efficacy on keratinocyte proliferation markers ([1]; 500 μM, medium depleted in growth factors): already show efficacy
level of DNA (Cyquant) [1, 3]: significantly increased
level of polar lipids (Nile red signal) [1, 3]: significantly increased
mitochondrial respiration (XTT signal) [1, 3]: significantly increased
keratinocyte proliferation ([1]; HaCat keratinocytes cultured in medium depleted in growth factors, versus untreated control): activate keratinocyte proliferation
growth of the dermal fibroblasts [2]: induces stimulation of growth
green fluorescence proportional to the amount of type I procollagen (type I procollagen; 1 mM for 120 hours, reconstructed skin versus control skin): marked increase in green fluorescence
procollagen 1 synthesis (type I procollagen; 1 mM): stimulation of procollagen 1 synthesis
procollagen 1 synthesis (type I procollagen; 5 mM): stimulation of procollagen 1 synthesis

From US20100190727A1, “USE OF MONOSACCHARIDES AND COMPOSITION THEREFOR” (L'OREAL, priority 2008, published 2010)
